Results published in US20250376461A1, “INDAZOLE DERIVATIVES FOR TREATING TRPM3-MEDIATED DISORDERS” (Katholieke Universiteit Leuven, priority 2022, published 2025).

Biological target: T1, mouse TRPM3α2 (mTRPM3) ion channel (Mus musculus, UniProt J9SQF3)
T1 construct: expressed in transfected cells; host or cells: flip-in HEK293
Experiment: TRPM3 ion channel driven Ca2+ uptake, Fluo-4 AM assay, mTRPM3alpha2 overexpressing flip-in HEK293 cells stimulated with pregnenolone sulfate (50 μM)
Format: cell-based
Details: mTRPM3 overexpressing HEK293 cells stimulated with pregnenolone sulfate (50 μM), activity ranges A, B, C
How it was run: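 Ca2+ influx via mouse TRPM3α2 was opened with pregnenolone sulfate (50 μM) and tracked by Fluo-4 AM fluorescence at 485/535 nm, read directly after adding about 2000 stably transfected HEK293 cells per well to compound. IC50 values come from percent inhibition scaled to vehicle and positive-control inhibitor signals.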

T1 sequence (J9SQF3 1-1709 isoform J9SQF3-12): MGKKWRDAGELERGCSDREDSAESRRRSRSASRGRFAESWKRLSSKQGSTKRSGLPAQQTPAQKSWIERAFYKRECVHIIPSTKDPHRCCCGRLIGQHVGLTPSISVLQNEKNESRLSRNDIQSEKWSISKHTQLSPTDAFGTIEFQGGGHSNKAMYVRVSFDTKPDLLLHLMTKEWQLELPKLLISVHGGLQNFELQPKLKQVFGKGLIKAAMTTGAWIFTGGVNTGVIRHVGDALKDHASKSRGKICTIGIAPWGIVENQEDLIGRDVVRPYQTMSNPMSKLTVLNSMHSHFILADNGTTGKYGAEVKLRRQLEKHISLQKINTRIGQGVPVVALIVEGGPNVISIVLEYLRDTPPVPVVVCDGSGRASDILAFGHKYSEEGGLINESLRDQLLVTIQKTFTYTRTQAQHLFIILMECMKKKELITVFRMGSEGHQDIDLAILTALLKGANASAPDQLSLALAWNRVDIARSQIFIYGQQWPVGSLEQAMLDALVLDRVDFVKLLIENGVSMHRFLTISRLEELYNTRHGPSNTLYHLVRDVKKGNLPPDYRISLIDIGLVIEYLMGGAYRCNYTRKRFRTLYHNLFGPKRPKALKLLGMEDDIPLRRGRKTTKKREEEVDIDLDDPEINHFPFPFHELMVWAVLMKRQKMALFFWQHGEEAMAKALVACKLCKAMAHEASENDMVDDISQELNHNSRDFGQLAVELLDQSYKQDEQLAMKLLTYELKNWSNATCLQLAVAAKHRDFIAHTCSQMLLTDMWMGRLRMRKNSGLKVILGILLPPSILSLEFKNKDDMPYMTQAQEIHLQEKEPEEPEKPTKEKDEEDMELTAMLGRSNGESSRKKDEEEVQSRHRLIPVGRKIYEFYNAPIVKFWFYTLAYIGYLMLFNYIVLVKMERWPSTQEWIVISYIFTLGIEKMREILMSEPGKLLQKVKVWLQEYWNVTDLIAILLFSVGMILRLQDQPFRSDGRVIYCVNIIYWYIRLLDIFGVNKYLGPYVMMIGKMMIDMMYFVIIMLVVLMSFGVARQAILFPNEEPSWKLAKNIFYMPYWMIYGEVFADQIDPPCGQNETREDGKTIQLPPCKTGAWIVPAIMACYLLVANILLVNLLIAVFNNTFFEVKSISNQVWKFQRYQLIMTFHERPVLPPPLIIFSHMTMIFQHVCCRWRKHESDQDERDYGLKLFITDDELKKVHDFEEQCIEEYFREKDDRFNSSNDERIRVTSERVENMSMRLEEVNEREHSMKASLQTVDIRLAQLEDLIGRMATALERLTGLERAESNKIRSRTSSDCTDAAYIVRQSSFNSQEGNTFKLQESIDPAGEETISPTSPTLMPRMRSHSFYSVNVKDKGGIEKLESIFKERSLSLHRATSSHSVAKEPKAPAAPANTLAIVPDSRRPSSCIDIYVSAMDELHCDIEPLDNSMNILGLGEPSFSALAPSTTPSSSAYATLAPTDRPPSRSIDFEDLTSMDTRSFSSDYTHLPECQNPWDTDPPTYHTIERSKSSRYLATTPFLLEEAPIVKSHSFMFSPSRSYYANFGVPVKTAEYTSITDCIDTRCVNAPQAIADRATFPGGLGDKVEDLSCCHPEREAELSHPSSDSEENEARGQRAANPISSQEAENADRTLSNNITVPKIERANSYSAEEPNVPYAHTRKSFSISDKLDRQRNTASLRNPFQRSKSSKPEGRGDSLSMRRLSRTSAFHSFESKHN

SMILES	IC50 [µM]
Cn1nc2ccc(OCc3ccccn3)cc2c1C(=O)NCc1cccc(OC(F)F)c1 [Cpd 210, N-{[3-(difluoromethoxy)phenyl]methyl}-2-methyl-5-[(pyridin-2-yl)methoxy]-2H-indazole-3-carboxamide]	> 20
Cn1nc2ccc(OCc3ccccn3)cc2c1C(=O)NC1CNCCC1(F)F (single isomer, unassigned) [Cpd 212 - En2, N-(4,4-difluoropiperidin-3-yl)-2-methyl-5-[(pyridin-2-yl)methoxy]-2H-indazole-3-carboxamide]	> 20
Cc1ncsc1COc1ccc2nn(C)c(C(=O)NCCN3CCOC3=O)c2c1 [Cpd 053, 2-methyl-5-[(4-methyl-1,3-thiazol-5-yl)methoxy]-N-[2-(2-oxo-1,3-oxazolidin-3-yl)ethyl]-2H-indazole-3-carboxamide]	> 20
Cn1nc2ccc(OCc3ccccn3)cc2c1C(=O)NC1CCOCC1 [Cpd 102, 2-methyl-N-(oxan-4-yl)-5-[(pyridin-2-yl)methoxy]-2H-indazole-3-carboxamide]	> 20
Cn1nc2ccc(OCc3ccccc3)cc2c1C(=O)NC1(CO)CCOCC1 [Cpd 074, 5-(benzyloxy)-N-[4-(hydroxymethyl)oxan-4-yl]-2-methyl-2H-indazole-3-carboxamide]	1 to 20
Cn1nc2ccc(OCC3CC3)cc2c1C(=O)NC1(C(N)=O)CCOC1 (single isomer, unassigned) [Cpd 165 - En2]	> 20
Cn1ccc(C(C)(CO)NC(=O)c2c3cc(OCc4ccccn4)ccc3nn2C)n1 (single isomer, unassigned) [Cpd 239 - En2]	> 20
Cc1ncc(COc2ccc3nn(C)c(C(=O)NC(C)(CO)CO)c3c2)o1 [Cpd 131, N-(1,3-dihydroxy-2-methylpropan-2-yl)-2-methyl-5-[(2-methyl-1,3-oxazol-5-yl)methoxy]-2H-indazole-3-carboxamide]	1 to 20
C[C@@H](NC(=O)c1c2cc(OCc3ccccn3)ccc2nn1C)C(N)=O [Cpd 083, (2R)-2-({2-methyl-5-[(pyridin-2-yl)methoxy]-2H-indazol-3-yl}formamido)propanamide]	1 to 20
Cc1ncc(COc2ccc3nn(C)c(C(=O)NC4CCOCC4)c3c2)s1 [Cpd 120, 2-methyl-5-[(2-methyl-1,3-thiazol-5-yl)methoxy]-N-(oxan-4-yl)-2H-indazole-3-carboxamide]	> 20
Cc1ncsc1COc1ccc2nn(C)c(C(=O)NC3CNCC(F)(F)C3)c2c1 (single isomer, unassigned) [Cpd 213 - En2]	> 20
C=C(Nc1cc(C(F)(F)F)cnc1O)c1c2cc(OCc3ccccn3)ccc2nn1C [Cpd 218, 3-[(1-{2-methyl-5-[(pyridin-2-yl)methoxy]-2H-indazol-3-yl}ethenyl)amino]-5-(trifluoromethyl)pyridin-2-ol]	> 20
Cn1nc2ccc(OCc3ccccn3)cc2c1C(=O)NC1CCNCC1(F)F (single isomer, unassigned) [Cpd 128 - En2]	> 20
Cn1nc2ccc(OCc3ccccn3)cc2c1C(=O)NC(C)(CO)C(N)=O (single isomer, unassigned) [Cpd 162 - En1]	1 to 20
Cn1nc2ccc(OCc3ccccn3)cc2c1C(=O)NC1(CO)CCOCC1 [Cpd 106, N-[4-(hydroxymethyl)oxan-4-yl]-2-methyl-5-[(pyridin-2-yl)methoxy]-2H-indazole-3-carboxamide]	1 to 20
Cc1ncsc1COc1ccc2nn(C)c(C(=O)NC3COCC3O)c2c1 (single isomer, unassigned) [Cpd 080 - Dia1]	1 to 20
Cn1nc2ccc(OCc3ccccc3)cc2c1C(=O)N[C@@H]1COC[C@H]1O (single isomer, unassigned) [Cpd 011 - Dia1]	1 to 20
Cn1nc2ccc(OCc3ccccc3)cc2c1C(=O)NC1CCNC1=O (stereo not shown) [Cpd 008, 5-(benzyloxy)-2-methyl-N-(2-oxopyrrolidin-3-yl)-2H-indazole-3-carboxamide]	1 to 20
Cn1nc2ccc(OCc3ccccn3)cc2c1C(=O)NC1CCNC1 (single isomer, unassigned) [Cpd 216 - En2]	1 to 20
CN1CC(NC(=O)c2c3cc(OCc4ccccc4)ccc3nn2C)C(F)(F)C1 (stereo not shown) [Cpd 034, 5-(benzyloxy)-N-(4,4-difluoro-1-methylpyrrolidin-3-yl)-2-methyl-2H-indazole-3-carboxamide]	1 to 20
Cn1nc2ccc(OCc3ccccn3)cc2c1C(=O)NC1CNCC1C(F)(F)F (single isomer, unassigned) [Cpd 246 - En1]	> 20
Cc1ncc(COc2ccc3nn(C(C)C)c(C(=O)NC(C)(CO)C(N)=O)c3c2)s1 (single isomer, unassigned) [Cpd 195 - En1]	> 20
Cn1ccc(NC(=O)c2c3cc(OCc4ccccc4)ccc3nn2C)n1 [Cpd 014, 5-(benzyloxy)-2-methyl-N-(1-methyl-1H-pyrazol-3-yl)-2H-indazole-3-carboxamide]	1 to 20
Cn1nc2ccc(OCc3ccccn3)cc2c1C(=O)NC1(CO)CC1(F)F (single isomer, unassigned) [Cpd 235 - En2, N-[2,2-difluoro-1-(hydroxymethyl)cyclopropyl]-2-methyl-5-[(pyridin-2-yl)methoxy]-2H-indazole-3-carboxamide]	1 to 20
Cn1nc2ccc(OCc3cccnc3)cc2c1C(=O)NC1(CO)CCNC1=O (single isomer, unassigned) [Cpd 180 - En2]	1 to 20
Cn1nc2ccc(OCC(F)F)cc2c1C(=O)NC(C)(CO)C(N)=O (single isomer, unassigned) [Cpd 187 - En1]	> 20
Cn1nc2ccc(OCc3ccccc3)cc2c1C(=O)NC1CNCC1(F)F (single isomer, unassigned) [Cpd 002 - En2, 5-(benzyloxy)-N-(4,4-difluoropyrrolidin-3-yl)-2-methyl-2H-indazole-3-carboxamide]	1 to 20
Cc1ccc(COc2ccc3nn(C)c(C(=O)NC4(CO)CCNC4=O)c3c2)cn1 (single isomer, unassigned) [Cpd 169 - En1]	> 20

The remaining lines, values ahead:

IC50 [µM]	SMILES
1 to 20	Cc1ncsc1COc1ccc2nn(C)c(C(=O)NC3CCNC3=O)c2c1 (stereo not shown) [Cpd 064, 2-methyl-5-[(4-methyl-1,3-thiazol-5-yl)methoxy]-N-(2-oxopyrrolidin-3-yl)-2H-indazole-3-carboxamide]
1 to 20	C[C@@H](O)[C@H](NC(=O)c1c2cc(OCC3CC3)ccc2nn1C)C(N)=O [Cpd 138, (2S,3R)-2-{[5-(cyclopropylmethoxy)-2-methyl-2H-indazol-3-yl]formamido}-3-hydroxybutanamide]
1 to 20	Cc1ncsc1COc1ccc2nn(C)c(C(=O)NC(C)(CO)C(N)=O)c2c1 (single isomer, unassigned) [Cpd 151 - En2]
< 1	Cn1nc2ccc(OCc3ccccn3)cc2c1C(=O)NC(CO)CC(F)(F)F (single isomer, unassigned) [Cpd 226-En1]
1 to 20	Cc1ncsc1COc1ccc2nn(C)c(C(=O)NC(C)(CO)C(=O)N(C)C)c2c1 (single isomer, unassigned) [Cpd 184 - En1]
1 to 20	Cn1nc2ccc(OCc3ccccn3)cc2c1C(=O)NC(CO)C(F)(F)F (single isomer, unassigned) [Cpd 254 - En1]
1 to 20	Cn1nc2ccc(OCc3ccccn3)cc2c1C(=O)NC1(CO)CCC1 [Cpd 086, N-[1-(hydroxymethyl)cyclobutyl]-2-methyl-5-[(pyridin-2-yl)methoxy]-2H-indazole-3-carboxamide]
1 to 20	CN1CC(NC(=O)c2c3cc(OCc4cccnc4C(F)(F)F)ccc3nn2C)C(F)(F)C1 (stereo not shown) [Cpd 081, N-(4,4-difluoro-1-methylpyrrolidin-3-yl)-2-methyl-5-{[2-(trifluoromethyl)pyridin-3-yl]methoxy}-2H-indazole-3-carboxamide]
1 to 20	CNC(=O)C(C)(CO)NC(=O)c1c2cc(OCc3scnc3C)ccc2nn1C (single isomer, unassigned) [Cpd 185 - En1, 3-hydroxy-N,2-dimethyl-2-({2-methyl-5-[(4-methyl-1,3-thiazol-5-yl)methoxy]-2H-indazol-3-yl}formamido)propanamide]
1 to 20	Cn1nc2ccc(OCC3CC3)cc2c1C(=O)NC1(C(N)=O)CCOC1 (single isomer, unassigned) [Cpd 165 - En1]
1 to 20	Cc1ncsc1COc1ccc2nn(C)c(C(=O)NCC(C)(C)CO)c2c1 [Cpd 024, N-(3-hydroxy-2,2-dimethylpropyl)-2-methyl-5-[(4-methyl-1,3-thiazol-5-yl)methoxy]-2H-indazole-3-carboxamide]
1 to 20	Cc1ncsc1COc1ccc2nn(C)c(C(=O)NCC3CCC(=O)N3)c2c1 (stereo not shown) [Cpd 063, 2-methyl-5-[(4-methyl-1,3-thiazol-5-yl)methoxy]-N-[(5-oxopyrrolidin-2-yl)methyl]-2H-indazole-3-carboxamide]
< 1	Cn1nc2ccc(OCc3cccnc3C(F)(F)F)cc2c1C(=O)NC(C)(CO)CO [Cpd 016, N-(1,3-dihydroxy-2-methylpropan-2-yl)-2-methyl-5-{[2-(trifluoromethyl)pyridin-3-yl]methoxy}-2H-indazole-3-carboxamide]
< 1	Cn1nc2ccc(OCc3ccccc3C(F)F)cc2c1C(=O)NC(C)(CO)C(N)=O (single isomer, unassigned) [Cpd 191 - En2]
< 1	Cn1nc2ccc(OCc3ccccc3F)cc2c1C(=O)NC1(C(N)=O)CCOCC1 [Cpd 097, N-(4-carbamoyloxan-4-yl)-5-[(2-fluorophenyl)methoxy]-2-methyl-2H-indazole-3-carboxamide]
